The numbers were not newly measured in patent US20180080913A1, “SCREENING METHOD FOR MULTI-TARGET DRUGS AND/OR DRUG COMBINATIONS” (Wuhan Bio-links Technology Co., Ltd, priority 2015, published 2018), which cites them from elsewhere.

The test system of this data set is human gastric barcinoma cell line MGC803. The following applies: combination of d-limonene and berberine, active ingredients of Zuo Gui Wan.

As for `C=C(C)[C@H]1CC=C(C)CC1` [d-limonene], the “promotion of gastric cancer cell apoptosis” value is recorded as “synergistically promote gastric cancer cell apoptosis”.
For the compound `COc1ccc2cc3[n+](cc2c1OC)CCc1cc2c(cc1-3)OCO2` [berberine], the “promotion of gastric cancer cell apoptosis” value is listed as “synergistically promote gastric cancer cell apoptosis”.
